According to patent US20250122160A1, “PROTEIN TYROSINE PHOSPHATASE INHIBITORS AND METHODS OF USE THEREOF” (Calico Life Sciences LLC, priority 0001, published 2025):

What was measured:
[1] = molecular target: T1, His tagged full-length PTPN1 protein (Homo sapiens, UniProt P18031); assay: Mobility shift assay (MSA) to determine potency of PTPN1 inhibitors; assay type: biochemical; details: 0.5 nM enzyme, 2 μM substrate
T1 construct: made in house
T1 sequence (P18031 with tags, fused parts or gaps): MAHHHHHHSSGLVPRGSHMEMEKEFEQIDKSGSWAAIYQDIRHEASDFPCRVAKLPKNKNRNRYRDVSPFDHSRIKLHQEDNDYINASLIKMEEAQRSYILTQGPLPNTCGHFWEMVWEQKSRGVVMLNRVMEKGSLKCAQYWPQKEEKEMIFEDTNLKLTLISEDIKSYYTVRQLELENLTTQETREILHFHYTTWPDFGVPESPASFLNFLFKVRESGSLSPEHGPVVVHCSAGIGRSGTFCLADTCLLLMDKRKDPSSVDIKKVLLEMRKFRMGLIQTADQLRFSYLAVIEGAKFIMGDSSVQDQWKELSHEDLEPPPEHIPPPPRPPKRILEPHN
In short: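 His-tagged full-length human PTPN1 (0.5 nM) preincubated with compound 10 min at room temperature in pH 7.5 HEPES buffer with EGTA, EDTA, Tween 20 and DTT. Dephosphorylation of 2 μM fluorescent phospho-insulin-receptor peptide over 10 min measured by mobility shift. IC50 from % inhibition across a 12-point, 1:3 dilution series.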

[2] = molecular target: T2, His tagged PTPN2 (TC45) protein (Homo sapiens, UniProt P17706); assay: Mobility shift assay (MSA) to determine potency of PTPN2 inhibitors; assay type: biochemical; details: 0.5 nM enzyme, 2 μM substrate
T2 construct: made in house
T2 sequence (P17706 with tags, fused parts or gaps isoform P17706-2): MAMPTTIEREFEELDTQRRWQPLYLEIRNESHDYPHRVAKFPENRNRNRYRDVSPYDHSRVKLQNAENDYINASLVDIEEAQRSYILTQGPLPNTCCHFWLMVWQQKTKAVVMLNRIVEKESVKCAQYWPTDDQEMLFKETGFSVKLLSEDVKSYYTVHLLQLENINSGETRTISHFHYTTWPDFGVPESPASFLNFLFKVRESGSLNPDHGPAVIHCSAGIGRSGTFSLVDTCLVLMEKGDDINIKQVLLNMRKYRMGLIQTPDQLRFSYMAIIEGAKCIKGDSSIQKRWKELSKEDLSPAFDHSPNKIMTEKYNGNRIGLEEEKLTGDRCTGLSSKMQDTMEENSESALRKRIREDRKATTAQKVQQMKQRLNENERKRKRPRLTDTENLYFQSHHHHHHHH
In short: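 His-tagged human PTPN2 (TC45), 0.5 nM, preincubated 10 min at room temperature with compound (12-point, 1:3 dilutions) in HEPES pH 7.5 buffer with EGTA, EDTA, Tween 20 and DTT. Then 2 μM OG488-labelled phospho-insulin-receptor peptide was added for 10 min and quenched. % conversion was read by mobility shift, and IC50 came from % inhibition.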

SMILES	IC50 [1] [nM]	IC50 [2] [nM]
O=C1CN(c2c(O)cc3c(c2F)C[C@H](NCC2CC2(F)F)CC3)S(=O)(=O)N1 (stereo partly drawn) [Compound 362, 5-[(7R)-7-{[(2,2-difluorocyclopropyl)methyl]amino}-1-fluoro-3-hydroxy-5,6,7,8-tetrahydronaphthalen-2-yl]-1λ^6,2,5-thiadiazolidine-1,1,3-trione]	10 to 100	10 to 100
COCCCN[C@@H]1CCc2cc(O)c(N3CC(=O)NS3(=O)=O)c(F)c2C1 [Compound 363, 5-{(7R)-1-fluoro-3-hydroxy-7-[(3-methoxypropyl)amino]-5,6,7,8-tetrahydronaphthalen-2-yl}-1λ^6,2,5-thiadiazolidine-1,1,3-trione]	10 to 100	1 to 10
O=C1CN(c2c(O)cc3c(c2F)C[C@H](NCc2cnco2)CC3)S(=O)(=O)N1 [Compound 364, 5-[(7R)-1-fluoro-3-hydroxy-7-{[(1,3-oxazol-5-yl)methyl]amino}-5,6,7,8-tetrahydronaphthalen-2-yl]-1λ^6,2,5-thiadiazolidine-1,1,3-trione]	10 to 100	10 to 100
O=C1CN(c2c(O)cc3c(c2F)C[C@H](NCCC2CCOCC2)CC3)S(=O)(=O)N1 [Compound 365, 5-[(7R)-1-fluoro-3-hydroxy-7-{[2-(oxan-4-yl)ethyl]amino}-5,6,7,8-tetrahydronaphthalen-2-yl]-1λ^6,2,5-thiadiazolidine-1,1,3-trione]	10 to 100	1 to 10
O=C1CN(c2c(O)cc3c(c2F)C[C@H](NCC2COC2)CC3)S(=O)(=O)N1 [Compound 366, 5-[(7R)-1-fluoro-3-hydroxy-7-{[(oxetan-3-yl)methyl]amino}-5,6,7,8-tetrahydronaphthalen-2-yl]-1λ^6,2,5-thiadiazolidine-1,1,3-trione]	10 to 100	10 to 100
O=C1CN(c2c(O)cc3c(c2F)C[C@H](NCc2nccs2)CC3)S(=O)(=O)N1 [Compound 367, 5-[(7R)-1-fluoro-3-hydroxy-7-{[(1,3-thiazol-2-yl)methyl]amino}-5,6,7,8-tetrahydronaphthalen-2-yl]-1λ^6,2,5-thiadiazolidine-1,1,3-trione]	10 to 100	10 to 100
O=C1CN(c2c(O)cc3c(c2F)C[C@H](NCc2ccnnc2)CC3)S(=O)(=O)N1 [Compound 368, 5-[(7R)-1-fluoro-3-hydroxy-7-{[(pyridazin-4-yl)methyl]amino}-5,6,7,8-tetrahydronaphthalen-2-yl]-1λ^6,2,5-thiadiazolidine-1,1,3-trione]	10 to 100	10 to 100
CC(O)CCN[C@@H]1CCc2cc(O)c(N3CC(=O)NS3(=O)=O)c(F)c2C1 (stereo partly drawn) [Compound 369, 5-{(7R)-1-fluoro-3-hydroxy-7-[(3-hydroxybutyl)amino]-5,6,7,8-tetrahydronaphthalen-2-yl}-1λ^6,2,5-thiadiazolidine-1,1,3-trione]	10 to 100	1 to 10
CC(C)CCN[C@@H]1COc2cc(O)c(N3CC(=O)NS3(=O)=O)c(F)c2C1 [Compound 372, 5-{(3S)-5-fluoro-7-hydroxy-3-[(3-methylbutyl)amino]-3,4-dihydro-2H-1-benzopyran-6-yl}-1λ^6,2,5-thiadiazolidine-1,1,3-trione]	10 to 100	10 to 100
O=C1CN(c2c(O)cc3c(c2F)C[C@H](NCCCC(F)F)CO3)S(=O)(=O)N1 [Compound 373, 5-{(3S)-3-[(4,4-difluorobutyl)amino]-5-fluoro-7-hydroxy-3,4-dihydro-2H-1-benzopyran-6-yl}-1λ^6,2,5-thiadiazolidine-1,1,3-trione]	10 to 100	1 to 10
CC(C)(CCN)CCN[C@@H]1CCc2cc(O)c(N3CC(=O)NS3(=O)=O)c(F)c2C1 [Compound 374, 5-{(7R)-7-[(5-amino-3,3-dimethylpentyl)amino]-1-fluoro-3-hydroxy-5,6,7,8-tetrahydronaphthalen-2-yl}-1λ^6,2,5-thiadiazolidine-1,1,3-trione]	10 to 100	1 to 10
O=C1CN(c2c(O)cc3c(c2F)C[C@H](NCCC2CCOCC2)CO3)S(=O)(=O)N1 [Compound 375, 5-[(3S)-5-fluoro-7-hydroxy-3-{[2-(oxan-4-yl)ethyl]amino}-3,4-dihydro-2H-1-benzopyran-6-yl]-1λ^6,2,5-thiadiazolidine-1,1,3-trione]	10 to 100	10 to 100
NCC1(CCN[C@@H]2CCc3cc(O)c(N4CC(=O)NS4(=O)=O)c(F)c3C2)CCC1 [Compound 376, 5-[(7R)-7-({2-[1-(aminomethyl)cyclobutyl]ethyl}amino)-1-fluoro-3-hydroxy-5,6,7,8-tetrahydronaphthalen-2-yl]-1λ^6,2,5-thiadiazolidine-1,1,3-trione]	1 to 10	< 1
NCCC1(CCN[C@@H]2CCc3cc(O)c(N4CC(=O)NS4(=O)=O)c(F)c3C2)CCC1 [Compound 377, 5-[(7R)-7-({2-[1-(2-aminoethyl)cyclobutyl]ethyl}amino)-1-fluoro-3-hydroxy-5,6,7,8-tetrahydronaphthalen-2-yl]-1λ^6,2,5-thiadiazolidine-1,1,3-trione]	1 to 10	< 1
O=C1CN(c2c(O)cc3c(c2F)C[C@H](NCCCOCC(F)F)CO3)S(=O)(=O)N1 [Compound 379, 5-[(3S)-3-{[3-(2,2-difluoroethoxy)propyl]amino}-5-fluoro-7-hydroxy-3,4-dihydro-2H-1-benzopyran-6-yl]-1λ^6,2,5-thiadiazolidine-1,1,3-trione]	10 to 100	10 to 100
O=C1CN(c2c(O)cc3c(c2F)C[C@H](NCC2CCC(C(F)(F)F)CC2)CO3)S(=O)(=O)N1 (stereo partly drawn) [Compound 380, 5-[(3S)-5-fluoro-7-hydroxy-3-({[4-(trifluoromethyl)cyclohexyl]methyl}amino)-3,4-dihydro-2H-1-benzopyran-6-yl]-1λ^6,2,5-thiadiazolidine-1,1,3-trione]	10 to 100	10 to 100
O=C1CN(c2c(O)cc3c(c2F)C[C@H](NCC2(CF)CC2)CO3)S(=O)(=O)N1 [Compound 381, 5-[(3S)-5-fluoro-3-({[1-(fluoromethyl)cyclopropyl]methyl}amino)-7-hydroxy-3,4-dihydro-2H-1-benzopyran-6-yl]-1λ^6,2,5-thiadiazolidine-1,1,3-trione]	> 100	10 to 100
O=C1CN(c2c(O)cc3c(c2F)C[C@H](NCCC2CCOC2)CO3)S(=O)(=O)N1 (stereo partly drawn) [Compound 382, 5-[(3S)-5-fluoro-7-hydroxy-3-{[2-(oxolan-3-yl)ethyl]amino}-3,4-dihydro-2H-1-benzopyran-6-yl]-1λ^6,2,5-thiadiazolidine-1,1,3-trione]	10 to 100	10 to 100
CC(C)(C)OC(=O)N1CCC(CN[C@@H]2COc3cc(O)c(N4CC(=O)NS4(=O)=O)c(F)c3C2)CC1 [Compound 384, tert-butyl 4-({[(3S)-5-fluoro-7-hydroxy-6-(1,1,4-trioxo-1λ^6,2,5-thiadiazolidin-2-yl)-3,4-dihydro-2H-1-benzopyran-3-yl]amino}methyl) piperidine-1-carboxylate]	10 to 100	10 to 100
O=C1CN(c2c(O)cc3c(c2F)C[C@H](NCC2CC(c4ccccc4)C2)CO3)S(=O)(=O)N1 (stereo partly drawn) [Compound 385, 5-[(3S)-5-fluoro-7-hydroxy-3-{[(3-phenylcyclobutyl)methyl]amino}-3,4-dihydro-2H-1-benzopyran-6-yl]-1λ^6,2,5-thiadiazolidine-1,1,3-trione]	10 to 100	1 to 10
O=C1CN(c2c(O)cc3c(c2F)C[C@H](NCCCc2ccccc2)CO3)S(=O)(=O)N1 [Compound 386, 5-{(3S)-5-fluoro-7-hydroxy-3-[(3-phenylpropyl)amino]-3,4-dihydro-2H-1-benzopyran-6-yl}-1λ^6,2,5-thiadiazolidine-1,1,3-trione]	10 to 100	10 to 100
CC(C)CCCN1CCc2cc(O)c(N3CC(=O)NS3(=O)=O)c(F)c2C1=O [Compound 387, 5-[8-fluoro-6-hydroxy-2-(4-methylpentyl)-1-oxo-1,2,3,4-tetrahydroisoquinolin-7-yl]-1λ^6,2,5-thiadiazolidine-1,1,3-trione]	> 100	> 100
O=C1CN(c2c(O)cc3c(c2F)C(=O)NCC3)S(=O)(=O)N1 [Compound 388, 5-(8-fluoro-6-hydroxy-1-oxo-1,2,3,4-tetrahydroisoquinolin-7-yl)-1λ^6,2,5-thiadiazolidine-1,1,3-trione]	> 100	> 100
NCC1CCc2cc(O)c(N3CC(=O)NS3(=O)=O)c(F)c2C1 (stereo not drawn) [Compound 389, 5-[7-(aminomethyl)-1-fluoro-3-hydroxy-5,6,7,8-tetrahydronaphthalen-2-yl]-1λ^6,2,5-thiadiazolidine-1,1,3-trione]	10 to 100	10 to 100
